Laboratory results reported in patent US20250214977A1, “STAT6 INHIBITORS AND USES THEREOF” (Kymera Therapeutics, Inc., priority 2024, published 2025).
“And” between values parts separate entries of the source, which are not always exact repeats. Equal values may be shown once.

system: Phosphorylation of STAT6 in human A549 cells; experiment: Phosphorylated STAT6 (pSTAT6) flow cytometry assay in human A549 cells; format: cell-based; settings: read-out: STAT6 IL4 pSTAT6 assay in A549 cells: Average IC50
From the text: Example 3. Phosphorylated STAT6 (pSTAT6) Flow Cytometry Assay in Human A549 Cells
Phosphorylation of STAT6 in human A549 cells was quantitatively measured using flow cytometry technology.

Row | SMILES | IC50
1 | COc1cc(F)cnc1N1CCN(C(=O)c2cc(-c3cccnc3OC)c3c(c2)cc(C2=CCCN(C(=O)CCn4ccnn4)C2)n3CC2CC2)CC1 [Example I-726] | < 100 nM
2 | COc1c(F)cccc1-c1cc(C2=CCCN(C(C)=O)C2)c(F)c2[nH]c(C(=O)N(C)C)cc12 [Example I-881] | 100 to 1000 nM
3 | COc1ccccc1-c1cc(C2=CCCN(C(=O)[C@H]3Cc4ccccc4CN3C=O)C2)cc2cc(C(=O)N(C)C)oc12 (single isomer, unassigned) [Example I-804] | 100 to 1000 nM
4 | COc1ncccc1-c1cc(C(=O)N2Cc3cnn(C)c3C2)cc2cc(C3=CCCN(C(=O)CC(=O)O)C3)n(CC3CC3)c12 [Example I-791] | < 100 nM
5 | COc1cc(F)cnc1N1CCN(C(=O)c2cc3c(-c4ccc(C5CC5)cc4)cc(C4=CCCN(C(=O)CCn5ccnn5)C4)c(F)c3[nH]2)CC1 [Example I-1157] | < 100 nM
6 | CN(C)C(=O)c1cc2cc(C3=CCCN(C(=O)CCn4ccnn4)C3)cc(-c3ccc(F)cc3O)c2o1 [Example I-1074] | < 100 nM
7 | COc1cnccc1-c1cc(C2=CCCN(C(=O)CCn3ccnn3)C2)c(F)c2[nH]c(C(=O)N3CCN(c4ncc(F)cc4OC)CC3)cc12 [Example I-666] | > 100000 nM
8 | COc1cccnc1N1CCN(C(=O)c2cc3ccc(C4=CCCN(C(=O)CCn5ccnn5)C4)c(F)c3[nH]2)CC1 [Example I-338] | < 100 nM
9 | C#CCOC1CCN(C(=O)c2cc3c(-c4ccccc4OC)cc(C4=CCCN(C(=O)CCn5ccnn5)C4)c(F)c3[nH]2)CC1 [Example I-1001] | < 100 nM
10 | COc1cc(F)cnc1N1CCN(C(=O)c2cc3c(-c4ccc(CN5CCOCC5)cc4)cc(C4=CCCN(C(=O)CCn5ccnn5)C4)c(F)c3[nH]2)CC1 [Example I-1122] | < 100 nM
11 | COc1cc(F)cnc1N1CCN(C(=O)c2cc3c(-c4ccc(C5(O)CCC5)cc4)cc(C4=CCCN(C(=O)CCn5ccnn5)C4)c(F)c3[nH]2)CC1 [Example I-1146] | < 100 nM
12 | CCc1nc(C)ccc1-c1cc(C(=O)N2CCN(C3CC3)CC2)cc2c(F)c(C3=CCCN(C(=O)CCn4ccnn4)C3)n(CC3CC3)c12 [Example I-548] | > 100000 nM
13 | CCc1cnccc1-c1cc(C(=O)N2CCN(c3ncc(F)cc3OC)CC2)cc2cc(C3=CCCN(C(=O)C(=O)O)C3)n(CC3CC3)c12 [Example I-796] | > 100000 nM
14 | COC(=O)CCC#Cc1cc(C2=CCCN(C(=O)C3Cc4ccccc4CN3C=O)C2)cc2cc(C(=O)N(C)C)oc12 (centres unmarked) [Example I-823] | < 100 nM
15 | CCOC(=O)CC(=O)N1CCC=C(c2cc3cc(C(=O)N4CCN(c5ncc(F)cc5OC)CC4)cc(-c4ccc(C)nc4CC)c3n2CC2CC2)C1 [Example I-1173] | 100 to 1000 nM
16 | C[C@@H](C(=O)N1CCC=C(c2ccc3cc(C(=O)N(C)C)[nH]c3c2)C1)n1ccccc1=O [Example I-834] | 100 to 1000 nM
17 | CC(=O)N1CCC=C(c2cc(-c3ccccc3N(C)C)c3cc(C(=O)N(C)C)[nH]c3c2F)C1 [Example I-1093] | 100 to 1000 nM
18 | CCc1cc(C)ncc1-c1cc(C2=CCCN(C(=O)C(C)C(=O)O)C2)c(F)c2[nH]c(C(=O)N3CCN(c4ncc(F)cc4OC)CC3)cc12 (centres unmarked) [Example I-808, 3-(3-(4-(4-ethyl-6-methylpyridin-3-yl)-7-fluoro-2-(4-(5-fluoro-3-methoxypyridin-2-yl)piperazine-1-carbonyl)-1H-indol-6-yl)-5,6-dihydropyridin-1(2H)-yl)-2-methyl-3-oxopropanoic acid] | 100 to 1000 nM and < 100 nM

Row | SMILES | IC50
19 | COc1cc(C)ncc1-c1cc(C2=CCCN(C(=O)CCn3ccnn3)C2)c(F)c2[nH]c(C(=O)N3CCN(c4ncccc4OC)CC3)cc12 [Example I-570] | < 100 nM
20 | COc1ccncc1-c1cc(C2=CCCN(C(C)=O)C2)c(F)c2[nH]c(C(=O)N3CCN(c4ccccc4OC)CC3)cc12 [Example I-409] | > 100000 nM
21 | CCc1cc(C)ncc1-c1cc(C2=CCCN(C(=O)CCc3nccs3)C2)c(F)c2[nH]c(C(=O)N3CCN(c4ncc(F)cc4OC)CC3)cc12 [Example I-525] | < 100 nM
22 | COc1cc(F)cnc1N1CCN(C(=O)c2cc3c(-c4cncc(OC(F)F)c4)cc(C4=CCCN(C(=O)CCn5ccnn5)C4)c(F)c3[nH]2)CC1 [Example I-651] | < 100 nM
23 | COc1cc(F)cnc1N1CCN(C(=O)c2cc3c(-c4c(F)ccc5ccc(C)nc45)cc(C4=CCCN(C(=O)CCn5ccnn5)C4)c(F)c3[nH]2)CC1 [Example I-631] | < 100 nM
24 | CCn1cc2c(n1)CN(C(=O)c1cc3c(-c4ccccc4OC)cc(C4=CCCN(C(=O)CCn5ccnn5)C4)c(F)c3[nH]1)C2 [Example I-505] | 10000 to 100000 nM
25 | COc1ccccc1-c1cc(C2=CCCN(C(C)=O)C2)c(F)c2sc(C(=O)N(C)C)cc12 [Example I-552] | 100 to 1000 nM
26 | COc1cnccc1-c1cc(C2=CCCN(C(=O)CCn3ccnn3)C2)c(F)c2[nH]c(C(=O)N3CCN(c4ncc(C(F)(F)F)cc4OC)CC3)cc12 [Example I-435] | < 100 nM
27 | COc1cc(F)cnc1N1CCN(C(=O)c2cc3c(-c4ccc(C5(C#N)CC5)cc4)cc(C4=CCCN(C(=O)CCn5ccnn5)C4)c(F)c3[nH]2)CC1 [Example I-1140] | < 100 nM
28 | CCc1cc(C)ncc1-c1cc(C2=CCCN(C(=O)CCn3ccnn3)C2)c(F)c2[nH]c(C(=O)N3Cc4cnn(C)c4C3)cc12 [Example I-531] | < 100 nM
29 | Cc1cc(C)c(-c2cc(C3=CCCN(C(=O)CCn4ccnn4)C3)cc3cc(C(=O)N(C)C)oc23)cc1C [Example I-856] | < 100 nM
30 | CCn1c(C2=CCCN(C(=O)CCn3ccnn3)C2)cc2cc(C(=O)N3CCN(c4ncc(F)cc4OC)CC3)cc(-c3ccccc3OC)c21 [Example I-734] | < 100 nM
31 | COc1ccncc1-c1cc(C2=CCCN(C(=O)CCn3ccnn3)C2)c(F)c2[nH]c(C(=O)N3CCN(c4ncc(Cl)cc4OC)CC3)cc12 [Example I-458] | < 100 nM
32 | COc1ccccc1-c1cc(C2=CCCN(C(=O)CCn3cccn3)C2)c(F)c2[nH]c(C(=O)N3Cc4cnn(C)c4C3)cc12 [Example I-503] | 10000 to 100000 nM
33 | CCc1ccc(-c2cc(C(=O)N3CCN(c4ncc(F)cc4OC)CC3)cc3cc(C4=CCCN(C(C)=O)C4)n(CC4CC4)c23)c(C)n1 [Example I-793] | < 100 nM
34 | CCOc1ccncc1-c1cc(C2=CCCN(C(=O)CCn3cccn3)C2)c(F)c2[nH]c(C(=O)N3CCN(c4cncnc4OC)CC3)cc12 [Example I-486] | < 100 nM
35 | CCc1ccncc1-c1cc(C2=CCCN(C(=O)CCC(=O)O)C2)c(F)c2[nH]c(C(=O)N3CCN(c4ncc(F)cc4OC)CC3)cc12 [Example I-1170] | 100 to 1000 nM
36 | COc1cc(F)cnc1N1CCN(C(=O)c2cc3c(-c4cnccc4C(C)C)cc(C4=CCCN(C(=O)CCn5ccnn5)C4)c(F)c3[nH]2)CC1 [Example I-668] | > 100000 nM

Other lines, results leading:

Row | IC50 | SMILES
37 | < 100 nM | COc1ccccc1-c1cc(C2=CCCN(C(=O)CCn3ccnn3)C2)c(F)c2[nH]c(C(=O)N3CCN(Cc4ccccc4)CC3)cc12 [Example I-1202]
38 | < 100 nM | COc1ccccc1-c1cc(C2=CCCN(C(=O)CCn3ccnn3)C2)c(F)c2[nH]c(C(=O)N3CCN(c4cccc(OC(F)F)c4)CC3)cc12 [Example I-427]
39 | < 100 nM | COc1ccccc1-c1cc(C2=CCCN(C(=O)CCn3ccnn3)C2)c(F)c2[nH]c(C(=O)N3CCc4cccnc43)cc12 [Example I-848]
40 | < 100 nM | CCc1ccccc1-c1cc(C2=CCCN(C(=O)CCn3ccnn3)C2)c(F)c2[nH]c(C(=O)N3CCN(c4ncc(F)cc4OC)CC3)cc12 [Example I-665]
41 | < 100 nM | COc1ccccc1-c1cc(C2=CCCN(C(=O)CCn3ccnn3)C2)c(F)c2[nH]c(C(=O)N3CCN(c4ccnn4C)CC3)cc12 [Example I-1025]
42 | < 100 nM | COc1ccccc1N1CCN(C(=O)c2cc3c(-c4cccc(F)c4OC)cc(C4=CCCN(C(=O)CCn5ccnn5)C4)c(F)c3[nH]2)CC1 [Example I-567]
43 | < 100 nM | COc1ccccc1-c1cc(C2=CCCN(C(=O)CCn3ccnn3)C2)c(F)c2[nH]c(C(=O)N3CCN(c4cc(C)c(=O)n(C)c4)CC3)cc12 [Example I-1023]
44 | < 100 nM | COc1ccccc1-c1cc(C2=CCCN(C(=O)CCn3ccnn3)C2)c(F)c2[nH]c(C(=O)N3Cc4ncn(C)c4C3)cc12 [Example I-541]
45 | < 100 nM | COc1ccccc1-c1cc(C2=CCCN(C(=O)CCn3ccnn3)C2)c(F)c2[nH]c(C(=O)N3CC(Oc4ccc(F)cc4)C3)cc12 [Example I-999]
46 | < 100 nM | COC(=O)N1CCN(C(=O)c2cc3c(-c4ccccc4OC)cc(C4=CCCN(C(=O)CCn5ccnn5)C4)c(F)c3[nH]2)CC1 [Example I-988]
47 | < 100 nM | COc1cccc(N2CCN(C(=O)c3cc4c(-c5ccncc5OC)cc(C5=CCCN(C(=O)CCn6ccnn6)C5)c(F)c4[nH]3)CC2)n1 [Example I-612]
48 | < 100 nM | COc1ccccc1-c1cc(C2=CCCN(C(=O)CCn3ccnn3)C2)c(F)c2[nH]c(C(=O)N3CCc4n[nH]cc4C3)cc12 [Example I-851]
49 | < 100 nM | COc1ccccc1-c1cc(C2=CCCN(C(=O)CCn3ccnn3)C2)c(F)c2[nH]c(C(=O)N3CCc4ncncc4C3)cc12 [Example I-1010]
50 | 100 to 1000 nM | COc1cc(F)cnc1N1CCN(C(=O)c2cc3c(-c4ccn(-c5ccccc5)n4)cc(C4=CCCN(C(=O)CCn5ccnn5)C4)c(F)c3[nH]2)CC1 [Example I-1113]
51 | < 100 nM | COc1ccccc1-c1cc(C2=CCCN(C(=O)CCn3ccnn3)C2)c(F)c2[nH]c(C(=O)N3CCN(c4ccccc4F)CC3)cc12 [Example I-418]
52 | 100 to 1000 nM | CCOC(=O)c1cc2ccc(N3CCN(C(=O)c4cc5c(-c6ccccc6OC)cc(C6=CCCN(C(=O)CCn7ccnn7)C6)c(F)c5[nH]4)CC3)cn2c1 [Example I-903]
53 | < 100 nM | COc1ccncc1-c1cc(C2=CCCN(C(=O)CCn3ccnn3)C2)c(F)c2[nH]c(C(=O)N3CCN(c4ccc(C(F)(F)F)cc4OC)CC3)cc12 [Example I-463]
54 | < 100 nM | COc1ccccc1-c1cc(C2=CCCN(C(=O)CCn3ccnn3)C2)c(F)c2[nH]c(C(=O)N3CCN(c4cnn5ccncc45)CC3)cc12 [Example I-1015]
55 | 100 to 1000 nM | COc1ccccc1-c1cc(C2=CCCN(C(=O)CCn3ccnn3)C2)c(F)c2[nH]c(C(=O)N3CCN(c4cccc(C(F)(F)F)n4)CC3)cc12 [Example I-937]
56 | > 100000 nM | COc1ccncc1-c1cc(C2=CCCN(C(=O)CCn3ccnn3)C2)c(F)c2[nH]c(C(=O)N3CCN(c4cccnc4C#N)CC3)cc12 [Example I-493]
